Patent US20230041563A1, “N-(1,3,4-OXADIAZOL-2-YL)ARYLCARBOXAMIDES OR SALTS THEREOF, PREPARATION METHODS, HERBICIDAL COMPOSITIONS AND USES THEREOF” (priority 2018, published 2023)
Like-named read-outs stand apart in the source and are kept apart here.

System: weeds
Experiment: Actual control effects and combined effects of mixtures of active ingredients (i) and (ii), stem-leaf treatment, Gowing method
Type: in vivo
Conditions: for pest or weed control at 27 g/ha: (ii) 1.8 g a.i./mu
Description: According to the actual control effect and the property of the herbicides, the balance of the formula and other factors, the optimal ratio was determined. In the calculation formula: X represents the fresh weight inhibition rate when the active ingredient (i) is used in an amount of P; and Y represents the fresh weight inhibition rate when the active ingredient (ii) is used in an amount of Q. The statistical results are shown in Tables 9-11 below.

[1] = 480 h, Echinochloa phyllopogon, (ii) 0.6 g a.i./mu, stem-leaf treatment, 20 days, read-out: Control effect of (ii) alone at corresponding dose
[2] = 480 h, Echinochloa phyllopogon, (ii) 3 g a.i./mu, stem-leaf treatment, 20 days, read-out: Control effect of (ii) alone at corresponding dose
[3] = Echinochloa phyllopogon, (ii) 0.6 g a.i./mu, 20 days
[4] = Echinochloa phyllopogon, (ii) 3 g a.i./mu, 20 days
[5] = Monochoria vaginalis, (ii) 3 g a.i./mu, 20 days
[6] = 480 h, Echinochloa phyllopogon, (ii) 15 g a.i./mu, stem-leaf treatment, 20 days, read-out: Control effect of (ii) alone at corresponding dose
[7] = Echinochloa phyllopogon, (ii) 15 g a.i./mu, 20 days
[8] = Echinochloa phyllopogon, (ii) 8 g a.i./mu, 20 days
[9] = Monochoria vaginalis, (ii) 1 g a.i./mu, 20 days
[10] = 480 h, Cyperus difformis, 20 days, read-out: Control effect of (ii) alone at corresponding dose
[11] = Pontederia vaginalis, 480 h, Monochoria vaginalis, (ii) 0.5 g a.i./mu, 20 days, read-out: Control effect of (ii) alone at corresponding dose
[12] = Pontederia vaginalis, 480 h, read-out: Control effect of (ii) alone at corresponding dose
[13] = 480 h, Cyperus difformis, (ii) 15 g a.i./mu, stem-leaf treatment, 20 days, read-out: Control effect of (ii) alone at corresponding dose
[14] = Cyperus difformis, (ii) 15 g a.i./mu, 20 days

SMILES: CCC1(CC2(c3cccc(Cl)c3)CO2)C(=O)c2ccccc2C1=O (centres unmarked) [Indanofan]
- Control effect of (ii) alone at corresponding dose (Monochoria vaginalis, (ii) 5 g a.i./mu, 20 days): 20.8%
- pest or weed control at 75 g/ha (Pontederia vaginalis, 480 h, Monochoria vaginalis, (ii) 5 g a.i./mu, stem-leaf treatment, 20 days, read-out: Control effect of (ii) alone at corresponding dose): 20.8%
- pest or weed control at 180 g/ha (Pontederia vaginalis, 480 h, Monochoria vaginalis, (ii) 12 g a.i./mu, 20 days, read-out: Control effect of (ii) alone at corresponding dose): 63.1%

SMILES: CC(C)c1ccc(NC(=O)N(C)C)cc1 [Isoproturon]
- pest or weed control at 9 g/ha [1]: 20.3%
- pest or weed control at 45 g/ha [2]: 40.2%
- Control effect of (ii) alone at corresponding dose [3]: 20.3%
- Control effect of (ii) alone at corresponding dose [4]: 40.2%

SMILES: Cc1cc(Cl)ccc1OCC(=O)O [MCPA]
- Control effect of (ii) alone at corresponding dose [5]: 28.2%
- Control effect of (ii) alone at corresponding dose (Monochoria vaginalis, (ii) 3 g a.i./mu, stem-leaf treatment, 20 days): 28.2%

SMILES: CN(C(=O)COc1nc2ccccc2s1)c1ccccc1 [Mefenacet]
- pest or weed control at 45 g/ha [2]: 19.2%
- pest or weed control at […] [6]: 46.7%
- Control effect of (ii) alone at corresponding dose [4]: 19.2%
- Control effect of (ii) alone at corresponding dose [7]: 46.7%

SMILES: CS(=O)(=O)c1ccc(C(=O)C2C(=O)CCCC2=O)c([N+](=O)[O-])c1 [Mesotrione]
- pest or weed control at 9 g/ha (480 h, Cyperus difformis, (ii) 0.6 g a.i./mu, 20 days, read-out: Control effect of (ii) alone at corresponding dose): 29.5%
- pest or weed control at 15 g/ha (480 h, Cyperus difformis, (ii) 1 g a.i./mu, stem-leaf treatment, 20 days, read-out: Control effect of (ii) alone at corresponding dose): 50.4%
- Control effect of (ii) alone at corresponding dose (Cyperus difformis, (ii) 1 g a.i./mu, 20 days): 50.4%

SMILES: C[C@@H](Oc1ccc(Oc2nc3ccc(Cl)cc3o2)cc1)C(=O)N(C)c1ccccc1F [Metamifop]
- Control effect of (ii) alone at corresponding dose [3]: 6.8%
- Control effect of (ii) alone at corresponding dose (Echinochloa phyllopogon, (ii) 0.6 g a.i./mu, stem-leaf treatment, 20 days): 6.8%
- Control effect of (ii) alone at corresponding dose [8]: 60.9%
- Control effect of (ii) alone at corresponding dose (Echinochloa phyllopogon, (ii) 8 g a.i./mu, stem-leaf treatment, 20 days): 60.9%

SMILES: COc1cc(OC)nc(NC(=O)NS(=O)(=O)c2c(C3=NOCC(C)O3)c(Cl)nn2C)n1 (centres unmarked) [Metazosulfuron]
- Control effect of (ii) alone at corresponding dose [9]: 25.6%
- Control effect of (ii) alone at corresponding dose (Monochoria vaginalis, (ii) 1 g a.i./mu, stem-leaf treatment, 20 days): 25.6%
- Control effect of (ii) alone at corresponding dose (Monochoria vaginalis, (ii) 1.2 g a.i./mu, 20 days): 30.3%

SMILES: CCc1cccc(C)c1N(C(=O)CCl)C(C)COC (centres unmarked) [Metolachlor]
- pest or weed control at 45 g/ha (480 h, Digitaria sanguinalis, (ii) 3 g a.i./mu, stem-leaf treatment, 20 days, read-out: Control effect of (ii) alone at corresponding dose): 15.3%
- pest or weed control at 45 g/ha [2]: 7.8%
- pest or weed control at […] (480 h, Echinochloa phyllopogon, (ii) 15 g a.i./mu, 20 days, read-out: Control effect of (ii) alone at corresponding dose): 15.3%
- Control effect of (ii) alone at corresponding dose [4]: 7.8%

SMILES: CSc1nnc(C(C)(C)C)c(=O)n1N [Metribuzin]
- pest or weed control at 9 g/ha (480 h, Echinochloa phyllopogon, (ii) 0.6 g a.i./mu, 20 days, read-out: Control effect of (ii) alone at corresponding dose): 9.1%
- pest or weed control at 45 g/ha [2]: 32.3%
- Control effect of (ii) alone at corresponding dose [4]: 32.3%

SMILES: CCSC(=O)N1CCCCCC1 [Molinate]
- pest or weed control at 45 g/ha [2]: 7.8%
- pest or weed control at 450 g/ha (480 h, Echinochloa phyllopogon, (ii) 30 g a.i./mu, 20 days, read-out: Control effect of (ii) alone at corresponding dose): 40.6%
- Control effect of (ii) alone at corresponding dose [4]: 7.8%

SMILES: CC(C)Oc1cc(-n2nc(C(C)(C)C)oc2=O)c(Cl)cc1Cl [Oxadiazon]
- pest or weed control at 45 g/ha [2]: 14.3%
- pest or weed control at […] [6]: 41.3%
- Control effect of (ii) alone at corresponding dose [4]: 14.3%
- Control effect of (ii) alone at corresponding dose [7]: 41.3%

SMILES: CC1=C(c2ccccc2)C(=O)N(C(C)(C)c2cc(Cl)cc(Cl)c2)CO1 [Oxaziclomefone]
- pest or weed control at 9 g/ha [1]: 12.5%
- pest or weed control at 15 g/ha (480 h, Echinochloa phyllopogon, (ii) 1 g a.i./mu, stem-leaf treatment, 20 days, read-out: Control effect of (ii) alone at corresponding dose): 18.7%
- Control effect of (ii) alone at corresponding dose [3]: 12.5%
- Control effect of (ii) alone at corresponding dose (Echinochloa phyllopogon, (ii) 1 g a.i./mu, 20 days): 18.7%

SMILES: CCOc1cc(Oc2ccc(C(F)(F)F)cc2Cl)ccc1[N+](=O)[O-] [Oxyfluorfen]
- pest or weed control at 3 g/ha (480 h, Echinochloa phyllopogon, (ii) 0.2 g a.i./mu, stem-leaf treatment, 20 days, read-out: Control effect of (ii) alone at corresponding dose): 6.7%
- pest or weed control at 120 g/ha (480 h, Echinochloa phyllopogon, (ii) 8 g a.i./mu, stem-leaf treatment, 20 days, read-out: Control effect of (ii) alone at corresponding dose): 76.5%
- Control effect of (ii) alone at corresponding dose (Echinochloa phyllopogon, (ii) 0.2 g a.i./mu, 20 days): 6.7%
- Control effect of (ii) alone at corresponding dose [8]: 76.5%

SMILES: CCC(CC)Nc1c([N+](=O)[O-])cc(C)c(C)c1[N+](=O)[O-] [Pendimethalin]
- pest or weed control at 27 g/ha [10]: 6.3%
- pest or weed control at 450 g/ha (480 h, Cyperus difformis, (ii) 30 g a.i./mu, stem-leaf treatment, 20 days, read-out: Control effect of (ii) alone at corresponding dose): 40.3%
- Control effect of (ii) alone at corresponding dose (Cyperus difformis, (ii) 30 g a.i./mu, 20 days): 40.3%

SMILES: CC(C)=C1OC(=O)N(c2cc(OC3CCCC3)c(Cl)cc2F)C1=O [Pentoxazone]
- Control effect of (ii) alone at corresponding dose (Monochoria vaginalis, (ii) 10 g a.i./mu, 20 days): 43.6%
- pest or weed control at […] [11]: 6.4%
- pest or weed control at 150 g/ha (Pontederia vaginalis, 480 h, Monochoria vaginalis, (ii) 10 g a.i./mu, stem-leaf treatment, 20 days, read-out: Control effect of (ii) alone at corresponding dose): 43.6%

SMILES: CCCOP(=S)(OCCC)SCC(=O)N1CCCCC1C (centres unmarked) [Piperophos]
- Control effect of (ii) alone at corresponding dose [5]: 9.9%
- pest or weed control at 45 g/ha [12]: 9.9%
- pest or weed control at 450 g/ha [12]: 41.2%

SMILES: CCCOCCN(C(=O)CCl)c1c(CC)cccc1CC [Pretilachlor]
- pest or weed control at 45 g/ha [2]: 15.2%
- pest or weed control at […] [6]: 43.2%
- Control effect of (ii) alone at corresponding dose [4]: 15.2%
- Control effect of (ii) alone at corresponding dose [7]: 43.2%

SMILES: CSc1nc(NC(C)C)nc(NC(C)C)n1 [Prometryn]
- pest or weed control at 9 g/ha [1]: 21.5%
- pest or weed control at 300 g/ha (480 h, Echinochloa phyllopogon, (ii) 20 g a.i./mu, stem-leaf treatment, 20 days, read-out: Control effect of (ii) alone at corresponding dose): 68.2%
- Control effect of (ii) alone at corresponding dose [3]: 21.5%
- Control effect of (ii) alone at corresponding dose (Echinochloa phyllopogon, (ii) 20 g a.i./mu, 20 days): 68.2%

SMILES: CCC(=O)Nc1ccc(Cl)c(Cl)c1 [Propanil]
- pest or weed control at 27 g/ha [10]: 9.2%
- pest or weed control at […] [13]: 46.2%
- Control effect of (ii) alone at corresponding dose [14]: 46.2%

SMILES: CCCc1ccc2nc(Cl)c(S(=O)(=O)NC(=O)Nc3nc(OC)cc(OC)n3)n2n1 [Propyrisulfuron]
- Control effect of (ii) alone at corresponding dose (Cyperus difformis, (ii) 0.6 g a.i./mu, 20 days): 19.5%
- Control effect of (ii) alone at corresponding dose (Cyperus difformis, (ii) 1.5 g a.i./mu, 20 days): 46.3%
- Control effect of (ii) alone at corresponding dose (Cyperus difformis, (ii) 1.5 g a.i./mu, stem-leaf treatment, 20 days): 46.3%

SMILES: C#CCN(C)c1c(C#N)cnn1-c1nn2c(c1Cl)CCCC2 [Pyraclonil]
- Control effect of (ii) alone at corresponding dose (Sagittaria trifolia L., (ii) 0.6 g a.i./mu, 20 days): 9.3%
- Control effect of (ii) alone at corresponding dose (Sagittaria trifolia L., (ii) 15 g a.i./mu, 20 days): 72.5%
- Control effect of (ii) alone at corresponding dose (Sagittaria trifolia, (ii) 15 g a.i./mu, stem-leaf treatment, 20 days): 72.5%

SMILES: CCOC(=O)c1cnn(C)c1S(=O)(=O)NC(=O)Nc1nc(OC)cc(OC)n1 [Pyrazosulfuron-ethyl]
- Control effect of (ii) alone at corresponding dose [9]: 75.6%
- pest or weed control at 9 g/ha (Pontederia vaginalis, 480 h, Monochoria vaginalis, (ii) 0.6 g a.i./mu, 20 days, read-out: Control effect of (ii) alone at corresponding dose): 54.5%
- pest or weed control at 15 g/ha (Pontederia vaginalis, 480 h, Monochoria vaginalis, (ii) 1 g a.i./mu, stem-leaf treatment, 20 days, read-out: Control effect of (ii) alone at corresponding dose): 75.6%

SMILES: CCCCCCCCSC(=O)Oc1cc(Cl)nnc1-c1ccccc1 [Pyridate]
- pest or weed control at 27 g/ha [10]: 12.9%
- pest or weed control at […] [13]: 53.2%
- Control effect of (ii) alone at corresponding dose [14]: 53.2%

SMILES: Cn1nc(C(F)(F)F)c(CS(=O)(=O)C2=NOC(C)(C)C2)c1OC(F)F [Pyroxasulfone]
- Control effect of (ii) alone at corresponding dose (Monochoria vaginalis, (ii) 9 g a.i./mu, 20 days): 34.5%
- pest or weed control at […] [11]: 6.3%
- pest or weed control at 135 g/ha (Pontederia vaginalis, 480 h, Monochoria vaginalis, (ii) 9 g a.i./mu, stem-leaf treatment, 20 days, read-out: Control effect of (ii) alone at corresponding dose): 34.5%

SMILES: O=C(O)c1c(Cl)ccc2cc(Cl)cnc12 [Quinclorac]
- pest or weed control at 45 g/ha [2]: 35.2%
- pest or weed control at […] [6]: 52.9%
- Control effect of (ii) alone at corresponding dose [4]: 35.2%
- Control effect of (ii) alone at corresponding dose [7]: 52.9%

SMILES: O=C1CCCC(=O)C1C(=O)c1c(Cl)ccc2cc(Cl)cnc12 [Quintrione]
- Control effect of (ii) alone at corresponding dose (Digitaria sanguinalis, (ii) 3 g a.i./mu, stem-leaf treatment, 20 days): 15.2%
- Control effect of (ii) alone at corresponding dose [4]: 15.8%
- Control effect of (ii) alone at corresponding dose (Echinochloa phyllopogon, (ii) 3 g a.i./mu, stem-leaf treatment, 20 days): 15.8%
- Control effect of (ii) alone at corresponding dose (Echinochloa phyllopogon, (ii) 30 g a.i./mu, 20 days): 66.7%
- Control effect of (ii) alone at corresponding dose (Echinochloa phyllopogon, (ii) 30 g a.i./mu, stem-leaf treatment, 20 days): 66.7%
